Converted amounts (≈) assume the structure as drawn. *1 amine or outer side, *2 acyl side, *3 side chain or, on linkers, in order; H or OH if unused. Where a SMILES comes first, the peptide text is derived from it. [ ]: non-standard residue; d: D form. The star is where a group is joined. X2 = CCCCCC[C@@H](OC[C@@H](C)N[*:1])[C@@H](C)C(=O)[*:2]; X14 = CCCCCC[C@@H](OCCN[*:1])[C@@H](C)C(=O)[*:2]; Gly(cHept) = N[C@H](C(=O)O)C1CCCCCC1; aThr = C[C@H](O)[C@H](N)C(=O)O; NMeL = CN[C@@H](CC(C)C)C(=O)O; Chg = N[C@H](C(=O)O)C1CCCCC1; NMeNva = CCC[C@H](NC)C(=O)O; X8 = NC[C@H]1C[C@H](*)C1; Dap = NC[C@H](N)C(=O)O; X11 = OC[C@H](O)C*
The molecules below were run on Escherichia coli (E. coli) strain CFT073 ATCC 700928. Conditions: ATCC 700928, 22 h.
Format: cell-based
Method: In vitro antimicrobial activity of each compound was determined by measuring minimal inhibitor concentrations (MICs) using the broth micro-dilution technique as approved by the Clinical and Laboratory Standards Institute (CLSI) (Methods for Dilution Antimicrobial Susceptibility Tests for Bacteria that Grow Aerobically; Approved Standard—Eighth Edition. CLSI document M07-A8. Wayne, Pa.: Clinical and Laboratroy Standards; 2009). Antibacterial activity was measure against Escherichia coli (E. coli) strain CFT073 ATCC 700928, which is a clinically relevant Gram-negative strain. Cells were inoculated onto plates of Mueller Hinton Agar and grown at 37° C. for 16-18 hours. Inocula suspensions were prepared by scraping cells into 1 mL of testing media (Mueller Hinton II cation adjusted Broth supplemented with 0.002% v/v Tween-80) and diluting to a final OD600 nm of 0.01.
Test compounds were prepared in DMSO at a concentration of 100 uM The compounds were tested under several different dilution formats and the data are reported in Tables 6, 7 and 8. In protocol 1, the compound stocks were diluted into testing media at a concentration of 64 μg/ml and serial 2-fold dilutions were made in the same media, in 96-well U bottom microtiter dishes, for a total of 10 compound concentrations. In protocol 2, the compound stocks were diluted into testing media at a concentration of 4 μg/mL and serial 2-fold dilutions were made in the same media, in 96-well U bottom microtiter dishes, for a total of 10 compound concentrations. In protocol 3, compound stocks were diluted into testing media at a concentration of 0.5 μg/mL, with serial 2-fold dilutions conducted as described above. In protocol 4, compound stocks were diluted into testing media at a concentration of 0.13 μg/mL, with serial 2-fold dilutions conducted as described above. Inocula suspensions were added to the 2-fold serial dilutions of test compounds to a final density of OD OD600 nm of 0.0005 and incubated at 35° C. for 22 hours.

SMILES	MIC [µM]
CCCCCC[C@H]1OC[C@@H](C)NC(=O)[C@H](CO[C@H]2C[C@H](CN)C2)NC(=O)[C@H](CN)NC(=O)[C@H](C2CCCCCC2)NC(=O)[C@H](CCC)N(C)C(=O)[C@@H]1C [Example 168, (3R,6S,9S,12S,15S,18R,19R)-9-(Aminomethyl)-6-(((1r,3S)-3-(aminomethyl)cyclobutoxy)methyl)-12-cycloheptyl-19-hexyl-3,16,18-trimethyl-15-propyl-1-oxa-4,7,10,13,16-pentaazacyclononadecane-5,8,11,14,17-pentaone] (cyclo([Dap]S(X8)[X2][NMeNva][Gly(cHept)]))	3.1 (≈ 2.33 µg/mL)
CCCCCC[C@H]1OC(=O)CNC(=O)[C@H]([C@H](C)O)NC(=O)[C@H](CN)NC(=O)[C@H]([C@H](C)CC)NC(=O)[C@H](CC2CCCC2)N(C)C(=O)[C@@H]1C [Example 104, (6S,9S,12S,15S,18R,19R)-9-(aminomethyl)-15-(cyclopentylmethyl)-19-hexyl-16,18-dimethyl-6-[(1S)-1-hydroxyethyl]-12-[(1R)-1-methylpropyl]-1-oxa-4,7,10,13,16-pentazacyclononadecane-2,5,8,11,14,17-hexone]	6.3 (≈ 4.29 µg/mL)
CCCCCCC1OC(=O)CNC(=O)[C@H](CNC(=O)C2CC3(CNC3)C2)NC(=O)[C@H](CN)NC(=O)[C@H](C2CCCCC2)NC(=O)[C@H](CC(C)C)N(C)C(=O)[C@@H]1C (stereo in doubt) [Example 165, N-[[(6S,9S,12S,15S,18R,19R)-9-(Aminomethyl)-12-cyclohexyl-19-hexyl-15-isobutyl-16,18-dimethyl-2,5,8,11,14,17-hexaoxo-1-oxa-4,7,10,13,16-pentazacyclononadec-6-yl]methyl]-2-azaspiro[3.3]heptane-6-carboxamide]	4.4 (≈ 3.47 µg/mL)
CCCCCC[C@H]1OC(=O)CNC(=O)[C@H]([C@H](C)O)NC(=O)[C@H](CO)NC(=O)[C@H](C2CCCCC2)NC(=O)[C@H](CC(C)C)N(C)C(=O)[C@@H]1C [Example 118, (6S,9S,12S,15S,18R,19R)-12-cyclohexyl-19-hexyl-9-(hydroxymethyl)-15-isobutyl-16,18-dimethyl-6-[(1S)-1-hydroxyethyl]-1-oxa-4,7,10,13,16-pentazacyclononadecane-2,5,8,11,14,17-hexone]	4.4 (≈ 3 µg/mL)
CCCCCCCCCC[C@H]1OC(=O)[C@H](C)NC(=O)[C@H]([C@H](C)O)NC(=O)[C@H](CO)NC(=O)[C@H]([C@@H](C)CC)NC(=O)[C@H](CC(C)C)N(C)C(=O)[C@@H]1C [Example 33, (3S,6S,9S,12S,15S,18R,19R)-19-decyl-6-[(1S)-1-hydroxyethyl]-9-(hydroxymethyl)-15-isobutyl-3,16,18-trimethyl-12-[(1S)-1-methylpropyl]-1-oxa-4,7,10,13,16-pentazacyclononadecane-2,5,8,11,14,17-hexone]	13 (≈ 9.44 µg/mL)
CCCCCC[C@H]1OC(=O)CNC(=O)[C@H]([C@H](C)O)NC(=O)[C@H](CN)NC(=O)[C@H](C2CCCCC2)NC(=O)[C@H](CC(C)C)N(C)C(=O)[C@@H]1CC1CCCCC1 [Example 135, (6S,9S,12S,15S,18R,19R)-9-(aminomethyl)-12-cyclohexyl-18-(cyclohexylmethyl)-19-hexyl-15-isobutyl-16-methyl-6-[(1S)-1-hydroxyethyl]-1-oxa-4,7,10,13,16-pentazacyclononadecane-2,5,8,11,14,17-hexone]	3.7 (≈ 2.82 µg/mL)
CC[C@@H](C)[C@@H]1NC(=O)[C@H](CC(C)C)N(C)C(=O)[C@H](C)[C@@H](CCCCc2ccccc2)OC(=O)CNC(=O)[C@H]([C@H](C)O)NC(=O)[C@H](CN)NC1=O [Example 89, (6S,9S,12S,15S,18R,19R)-9-(aminomethyl)-15-isobutyl-16,18-dimethyl-19-(4-phenylbutyl)-6-[(1S)-1-hydroxyethyl]-12-[(1R)-1-methylpropyl]-1-oxa-4,7,10,13,16-pentazacyclononadecane-2,5,8,11,14,17-hexone]	12 (≈ 8.43 µg/mL)
CCCCCCCCCC[C@H]1OC(=O)CNC(=O)[C@H](CO)NC(=O)[C@H](CO)NC(=O)[C@H](C(CC)CC)NC(=O)[C@H](CC(C)C)N(C)C(=O)[C@@H]1C [Example 43, (6S,9S,12S,15S,18R,19R)-19-decyl-12-(1-ethylpropyl)-6,9-bis(hydroxymethyl)-15-isobutyl-16,18-dimethyl-1-oxa-4,7,10,13,16-pentazacyclononadecane-2,5,8,11,14,17-hexone]	13 (≈ 9.26 µg/mL)
CCCCCC[C@H]1OCCNC(=O)[C@H]([C@H](C)O)NC(=O)[C@H](CN)NC(=O)[C@H](C2CCCCC2)NC(=O)[C@H](CC(C)C)N(C)C(=O)[C@@H]1C [Example 115, (6S,9S,12S,15S,18R,19R)-9-(aminomethyl)-12-cyclohexyl-19-hexyl-15-isobutyl-16,18-dimethyl-6-[(1S)-1-hydroxyethyl]-1-oxa-4,7,10,13,16-pentazacyclononadecane-5,8,11,14,17-pentone] (cyclo([Chg][Dap][aThr][X14][NMeL]))	8.7 (≈ 5.8 µg/mL)
CCC[C@H]1C(=O)N[C@@H](C2CCCCCC2)C(=O)N[C@@H](CN)C(=O)N[C@@H]([C@H](C)O)C(=O)NCC(=O)O[C@H](CC2CC3(CCC3)C2)[C@@H](C)C(=O)N1C [Example 84, (6S,9S,12S,15S,18R,19R)-9-(Aminomethyl)-12-cycloheptyl-6-((S)-1-hydroxyethyl)-16,18-dimethyl-15-propyl-19-(spiro[3.3]heptan-2-ylmethyl)-1-oxa-4,7,10,13,16-pentaazacyclononadecane-2,5,8,11,14,17-hexaone]	0.78 (≈ 0.55 µg/mL)
CCCCCC[C@H]1OC(=O)CNC(=O)[C@H]([C@@H](O)CO)NC(=O)[C@H](CN)NC(=O)[C@H](C2CCCCC2)NC(=O)[C@H](CC(C)C)N(C)C(=O)[C@@H]1C [Example 102, (6S,9S,12S,15S,18R,19R)-9-(aminomethyl)-12-cyclohexyl-19-hexyl-15-isobutyl-16,18-dimethyl-6-[(1R)-1,2-dihydroxyethyl]-1-oxa-4,7,10,13,16-pentazacyclononadecane-2,5,8,11,14,17-hexone]	3.1 (≈ 2.16 µg/mL)
CCCCCCCCCC[C@H]1OC(=O)CNC(=O)[C@H](CO)NC(=O)[C@H](CN)NC(=O)[C@H]([C@H](C)CC)NC(=O)[C@H](CC(C)C)N(C)C(=O)[C@@H]1C [Example 12, (6S,9S,12S,15S,18R,19R)-9-(aminomethyl)-19-decyl-6-(hydroxymethyl)-15-isobutyl-16,18-dimethyl-12-[(1R)-1-methylpropyl]-1-oxa-4,7,10,13,16-pentazacyclononadecane-2,5,8,11,14,17-hexone]	4.7 (≈ 3.28 µg/mL)
CCCCCC[C@H]1OC(=O)CNC(=O)[C@H]([C@H](C)O)NC(=O)[C@H](CN)NC(=O)[C@H](C2CCCCCC2)NC(=O)[C@H](CC(C)C)N(C)C(=O)[C@@H]1C [Example 59, (6S,9S,12S,15S,18R,19R)-9-(Aminomethyl)-12-cycloheptyl-19-hexyl-6-((S)-1-hydroxyethyl)-15-isobutyl-16,18-dimethyl-1-oxa-4,7,10,13,16-pentaazacyclononadecane-2,5,8,11,14,17-hexaone]	1.1 (≈ 0.764 µg/mL)
CCCCCC[C@H]1OC[C@@H](C)NC(=O)[C@H](COC[C@@H](O)CO)NC(=O)[C@H](CN)NC(=O)[C@H](C2CCCCC2)NC(=O)[C@H](CC(C)C)N(C)C(=O)[C@@H]1C [Example 67, (3R,6S,9S,12S,15S,18R,19R)-9-(Aminomethyl)-12-cyclohexyl-6-(((S)-2,3-dihydroxypropoxy)methyl)-19-hexyl-15-isobutyl-3,16,18-trimethyl-1-oxa-4,7,10,13,16-pentaazacyclononadecane-5,8,11,14,17-pentaone] (cyclo([Chg][Dap]S(X11)[X2][NMeL]))	8.8 (≈ 6.52 µg/mL)
CCCCCCCCCC[C@H]1OC(=O)CNC(=O)[C@H]([C@H](C)O)NC(=O)[C@H](CN)NC(=O)[C@H](CCc2ccccc2)NC(=O)[C@H](CC(C)C)N(C)C(=O)[C@@H]1C [Example 46, (6S,9S,12S,15S,18R,19R)-9-(aminomethyl)-19-decyl-6-[(1S)-1-hydroxyethyl]-15-isobutyl-16,18-dimethyl-12-(2-phenylethyl)-1-oxa-4,7,10,13,16-pentazacyclononadecane-2,5,8,11,14,17-hexone]	25 (≈ 19 µg/mL)
CCCCCCCCCC[C@H]1OC(=O)CNC(=O)[C@H](C(C)(C)O)NC(=O)[C@H](CO)NC(=O)[C@H]([C@@H](C)CC)NC(=O)[C@H](CC(C)C)N(C)C(=O)[C@@H]1C [Example 21, (6S,9S,12S,15S,18R,19R)-19-decyl-9-(hydroxymethyl)-6-(1-hydroxy-1-methyl-ethyl)-15-isobutyl-16,18-dimethyl-12-[(1S)-1-methylpropyl]-1-oxa-4,7,10,13,16-pentazacyclononadecane-2,5,8,11,14,17-hexone]	50 (≈ 36.3 µg/mL)
CCCCCC[C@H]1OC[C@@H](C)NC(=O)[C@H](CN)NC(=O)[C@H](CN)NC(=O)[C@H](C2CCCCCC2)NC(=O)[C@H](CC(C)C)N(C)C(=O)[C@@H]1C [Example 151, (3R,6S,9S,12S,15S,18R,19R)-6,9-Bis(aminomethyl)-12-cycloheptyl-19-hexyl-15-isobutyl-3,16,18-trimethyl-1-oxa-4,7,10,13,16-pentazacyclononadecane-5,8,11,14,17-pentone] (cyclo([Dap][Dap][X2][NMeL][Gly(cHept)]))	6.3 (≈ 4.28 µg/mL)

— patent US11279735B2, “Cyclic peptide antibiotics” (priority 2017, dated 2022)
